Assay results: patent US12605350B2, “Composition for preventing, ameliorating, or treating disease caused by nitration of tyrosine in proteins comprising tyrosine as effective component” (INDUSTRY-ACADEMIC COOPERATION FOUNDATION GYEONGSANG …, priority 2020, dated 2026)
“Also recorded” adds a separate entry of the source.

Experiments:
[1] = system: chronic immobilization stress group (STR); experiment: SPT (sucrose preference test) after chronic immobilization stress; assay type: in vivo, mouse; details: tyrosine diet (181.2 mg/kg) compared to normal diet, p<0.01
Procedure: The animal models were divided into two groups (i.e., normal group and stress group). The animal of stress group was individually brought by force to a restrainer for 2 hours every day (i.e., between 2 PM and 4 PM) so that it was applied with chronic immobilization stress for 15 days. Change in bodyweight and food intake amount were measured every other day.
The normal group and stress group were divided again into a normal diet group and a tyrosine-supplemented diet group (181.2 mg/kg), and then fed.
For SPT (sucrose preference test), 0.1 M sucrose and water were provided for 48 hours so that the animals are habituated with them. After that, none of 0.1 M sucrose and water was provided for 24 hours, and then 0.1 M sucrose and water were provided again for 6 hours. Then, 0.1 M sucrose and water were moved to different positions for 3 hours.
After that, consumption amount of sucrose and water was measured, and the sugar preference was calculated in terms of the ratio of provided sucrose compared to total consumption amount.

[2] = system: glutamine synthetase (GS); experiment: GS activity, GS expression and Tyr-nitrated GS in PFC of chronic immobilization stress mice; assay type: in vivo, mouse
Procedure: Each of the blood and PFC sample was obtained from a mouse anesthetized with CO2 gas. Specifically, mouse blood was collected between 9 AM and 11 AM and stored in a K3EDTA-coated vacuum container. Plasma was obtained by centrifuge for 10 minutes at 4° C., 500×g. PFC sample was weighed first, and, after lysis of the tissues by using Bullet homogenizer, subjected to centrifuge for 20 minutes at 4° C., 12,000 rpm. Thus-obtained plasma and tissue lysate were kept at −80° C. until use.
10 μg of the lysate were admixed with […] of GS assay buffer solution (50 mM imidazole-HCl, pH 6.8, 50 mM L-glutamine, 25 mM hydroxylamine, 25 mM sodium arsenate, 2 mM MnCl2 and 0.16 mM ADP), followed by incubation for 1 hour at 37° C.
After the mixing, the reaction was terminated by adding 50 μl of stop buffer solution (90 mM FeCl3, 1.8 N HCl and 1.45% trichloroacetic acid), and then γ-glutamylhydroxamate synthesized from a reaction between glutamine and hydroxylamine as catalyzed by GS was measured at 560 nm using a microplate reader.
By using Western blot (WB) and immunoprecipitation (IP)-WB, level of GS and level of Tyr-nitrated GS were measured, respectively. […]
The animal models were divided into two groups (i.e., normal group and stress group). […] Change in bodyweight and food intake amount were measured every other day. […]

[3] = system: glutamine synthetase (GS); experiment: activity of glutamine synthetase (GS) in hippocampus lysate after kainic acid; assay type: in vivo; details: mouse survived after kainic acid, tyrosine diet vs ND/control
Procedure: (§1) To a 96-well plate, 2 μl of hippocampus lysate were added, and then adjusted to 50 μl by additionally adding 50 mM imidazole-HCl buffer solution (pH 6.8). After adding 50 μl of GS activity assay buffer solution (50 mM imidazole-HCl, pH 6.8, 25 mM L-glutamine, 12.5 mM hydroxylamine, 12.5 mM sodium arsenate, 1 mM MnCl2 and 0.08 mM ADP), the reaction was allowed to occur at 37° C. for 30 to 60 minutes.
Upon the completion of the reaction, γ-glutamylhydroxamate as a reference material was added to an empty well such that it is present at a concentration of between 0.391 and 25.0 mM. To the sample and reference material, 100 μl of reaction termination solution (90 mM FeCl3, 1.8 N HCl and 1.45% (w/v) trichloroacetic acid) were added and absorbance at a wavelength of 560 nm was measured.
Based on comparison with standard curve, GS activity was obtained for each sample. GS activity was expressed in terms of the production amount of γ-glutamylhydroxamate as a final product with unit of μM/min/μg of protein.

[4] = system: mouse model of chronic immobilization stress; experiment: object location recognition test (OLT); assay type: in vivo; details: D-Tyr-containing diet (181 mg D-Tyr/kg AIN-93G), chronic stress 14 days
Procedure: Twenty-eight C57BL/6 male mice (7-week old) were divided into two groups, each group provided for 1 week with a normal diet or D-tyrosine (D-Tyr)-containing diet (181 mg D-Tyr/kg AIN-93G).
Once the animals become 8-week old, they were applied with chronic immobilization stress (CIS) under light condition of 200 lux, 2 hours per day for 2 weeks. The animals were divided into the control group (CTL), D-Tyr diet control group (CTL+D-Tyr), chronic stress group (STR), and D-Tyr diet chronic stress group (STR+D-Tyr), in which each group consists of 7 animals.
Upon the completion of the CIS for 2 weeks, a cognitive function test was carried out. To compare the cognitive function between the group provided with D-Tyr-containing diet over the entire test period including habituation period and normal feed diet group, an object recognition test (ORT) and an object location recognition test (OLT) for testing long-term memory skills were carried out.
OLT: 24 Hours after carrying out ORT, location of a familiar object was changed, and the animal was allowed to explore for 5 minutes. According to the same method as the aforementioned object recognition function index (DI), ratio of time spent for exploring an object with changed location compared to the entire time for exploring an object was calculated. Accordingly, object location recognition function index was obtained.

[5] = system: glutamine synthetase (GS); experiment: activity of glutamine synthetase (GS) in lysate of cerebral motor cortex, endothelin-1 stroke model; assay type: in vivo, mouse; details: Tyr diet (905 mg/kg L-Tyr)
Procedure: The mouse was anesthetized by intraperitoneal injection of avertin as an anesthetic (0.5 ml/25 g of mouse bodyweight). Thereafter, endothelin-1 was injected (2 μg) to the cerebral motor cortex area (with bregma at the center, AP 1.5 mm, ML-1.5 mm, and DV 1.8 mm) by stereotaxic surgery. The injection was made at speed of 0.3 μl per minute. The needle was left for about 5 minutes after completing the injection so that endothelin-1 can be fully absorbed in animal tissues. After suturing the skin, the animal was allowed to recover in the original cage.
as §1, with “of” for “of hippocampus”, “lysate of cerebral motor cortex” for “lysate”
Upon the completion of the reaction, γ-glutamylhydroxamate as a reference material was added to an empty well (0.391 to 25.0 mM). To the sample and reference material, 100 μl of reaction termination solution (90 mM FeCl3, 1.8 N HCl and 1.45% trichloroacetic acid) were added and absorbance at a wavelength of 560 nm was measured. Based on comparison with standard curve, GS activity was obtained for each sample. […]

With `N[C@@H](Cc1ccc(O)cc1)C(=O)O` [tyrosine] the sugar preference [1] was “statistically significant increase in the sugar preference”, the “GS activity in PFC” value ([2]; stress group, tyrosine diet (181.2 mg/kg) compared to normal diet) was “statistically significant increase in the GS activity” and the “amount of N-Tyr (nitrated tyrosine) in GS” value ([2]; tyrosine-diet group compared to stress group with normal diet, PFC) was “statistically significant decrease in the amount of N-Tyr”. The “GS activity in hippocampal tissues” value [3] was “the same or higher than the control group; also recorded: statistically significant increase in GS activity”, the “cognitive function according to OTL (object location recognition function index)” value [4] was “maintained at the level of the control group” and the “GS activity of the tissues (cerebral motor cortex)” value [5] was “the activity can be maintained”.
